For this assay, the target named is α2β1 (Homo sapiens, UniProt P05556+P17301). Put plainly: α2β1 cell adhesion. The format is cell-based.

The text below walks through data of patent US11643388B2, “Inhibitors of alpha 2 beta 1 integrin and methods of use thereof” (The Regents of the University of California, priority 2020, dated 2023).

α2β1, sequence (P17301 30-1181): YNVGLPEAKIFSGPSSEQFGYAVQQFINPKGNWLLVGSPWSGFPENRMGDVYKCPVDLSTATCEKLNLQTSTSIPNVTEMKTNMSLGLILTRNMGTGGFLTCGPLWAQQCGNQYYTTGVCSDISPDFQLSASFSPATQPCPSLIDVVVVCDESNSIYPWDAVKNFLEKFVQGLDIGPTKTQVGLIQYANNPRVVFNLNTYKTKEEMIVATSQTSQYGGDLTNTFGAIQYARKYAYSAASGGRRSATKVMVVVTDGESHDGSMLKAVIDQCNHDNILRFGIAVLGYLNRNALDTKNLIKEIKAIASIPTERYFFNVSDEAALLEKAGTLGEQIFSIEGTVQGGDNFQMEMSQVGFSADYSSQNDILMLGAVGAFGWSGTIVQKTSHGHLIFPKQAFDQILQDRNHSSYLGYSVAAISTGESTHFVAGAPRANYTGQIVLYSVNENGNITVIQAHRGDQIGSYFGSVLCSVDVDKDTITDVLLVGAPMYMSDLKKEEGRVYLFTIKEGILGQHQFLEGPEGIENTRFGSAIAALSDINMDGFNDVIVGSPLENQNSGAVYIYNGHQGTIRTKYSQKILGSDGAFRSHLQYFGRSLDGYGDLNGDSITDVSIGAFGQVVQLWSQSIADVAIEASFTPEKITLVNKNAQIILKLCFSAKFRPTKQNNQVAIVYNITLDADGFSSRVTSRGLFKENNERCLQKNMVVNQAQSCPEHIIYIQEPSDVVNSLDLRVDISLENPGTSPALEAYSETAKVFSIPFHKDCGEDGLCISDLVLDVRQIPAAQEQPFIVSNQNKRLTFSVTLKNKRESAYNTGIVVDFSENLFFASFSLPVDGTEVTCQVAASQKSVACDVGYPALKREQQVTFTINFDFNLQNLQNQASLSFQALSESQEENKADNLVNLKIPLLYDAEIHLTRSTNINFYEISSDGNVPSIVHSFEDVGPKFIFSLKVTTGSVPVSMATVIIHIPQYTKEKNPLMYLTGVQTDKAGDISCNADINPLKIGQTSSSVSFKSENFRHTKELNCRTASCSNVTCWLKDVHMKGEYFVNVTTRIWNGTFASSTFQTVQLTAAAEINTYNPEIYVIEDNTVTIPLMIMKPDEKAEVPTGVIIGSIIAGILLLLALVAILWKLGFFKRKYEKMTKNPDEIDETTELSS
α2β1, sequence (P05556 21-798): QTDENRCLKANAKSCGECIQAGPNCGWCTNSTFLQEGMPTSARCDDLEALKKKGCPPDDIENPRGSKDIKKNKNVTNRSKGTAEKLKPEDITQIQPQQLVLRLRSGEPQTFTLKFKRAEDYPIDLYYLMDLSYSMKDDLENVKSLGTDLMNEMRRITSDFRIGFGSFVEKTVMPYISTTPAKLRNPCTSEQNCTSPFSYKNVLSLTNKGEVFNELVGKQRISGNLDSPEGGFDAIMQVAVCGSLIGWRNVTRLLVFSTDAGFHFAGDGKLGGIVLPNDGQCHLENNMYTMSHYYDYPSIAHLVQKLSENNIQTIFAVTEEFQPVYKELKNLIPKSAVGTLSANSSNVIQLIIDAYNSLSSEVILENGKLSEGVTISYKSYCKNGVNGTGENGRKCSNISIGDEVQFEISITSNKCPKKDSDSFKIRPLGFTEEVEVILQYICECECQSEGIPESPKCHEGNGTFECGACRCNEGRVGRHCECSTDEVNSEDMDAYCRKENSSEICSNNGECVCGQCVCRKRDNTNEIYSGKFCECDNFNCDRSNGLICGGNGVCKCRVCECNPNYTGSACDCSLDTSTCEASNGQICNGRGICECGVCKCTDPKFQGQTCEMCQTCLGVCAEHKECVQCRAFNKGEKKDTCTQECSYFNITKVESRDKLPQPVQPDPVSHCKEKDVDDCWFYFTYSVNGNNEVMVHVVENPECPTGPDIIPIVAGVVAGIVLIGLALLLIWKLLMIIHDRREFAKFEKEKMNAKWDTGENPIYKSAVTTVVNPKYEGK

The term IC50 denotes the midpoint of a concentration-inhibition curve. The compound `O=C(NC[C@H](NC(=O)c1c(Cl)cc(COCc2ccccc2)cc1Cl)C(=O)O)N[C@@H]1CCc2ccccc21` [SU15210-0189-01, (S)-2-(4-(benzyloxymethyl)-2,6-dichlorobenzamido)-3-(3-((R)-2,3-dihydro-1H-inden-1-yl)ureido)propanoic Acid] yielded an IC50 of 500 to 1000 nM. For `O=C(NC[C@H](NC(=O)c1c(Cl)ccc(NC2CCc3ccccc3C2)c1Cl)C(=O)O)N[C@@H]1CCc2ccccc21` (stereo partly drawn) [SU15210-0126-01, (2S)-2-(2,6-dichloro-3-(1,2,3,4-tetrahydronaphthalen-2-ylamino)benzamido)-3-(3-((R)-2,3-dihydro-1H-inden-1-yl)ureido)propanoic Acid], the IC50 fell in the range of 1000 to 5000 nM. The figure for `Nc1ccc(Cl)c(C(=O)N[C@@H](CNC(=O)N[C@@H]2CCc3ccccc32)C(=O)O)c1Cl` [SU15210-0084-01, (S)-2-(3-amino-2,6-dichlorobenzamido)-3-(3-((R)-2,3-dihydro-1H-inden-1-yl)ureido)propanoic Acid] is 500 to 1000 nM; for `O=C(NC[C@H](NC(=O)c1c(Cl)cc2c(c1Cl)CCN(S(=O)(=O)c1ccccc1)C2)C(=O)O)N[C@@H]1CCc2ccccc21` [SU15210-0214-01, (S)-2-(5,7-dichloro-2-(phenylsulfonyl)-1,2,3,4-tetrahydroisoquinoline-6-carboxamido)-3-(3-((R)-2,3-dihydro-1H-inden-1-yl)ureido)propanoic Acid] it is 1000 to 5000 nM; for `O=C(NC[C@H](NC(=O)c1c(Cl)cc2c(c1Cl)CCN(C(=O)c1ccc(Cl)cc1)C2)C(=O)O)N[C@@H]1CCc2ccccc21` [SU15210-0208-01, (S)-2-(5,7-dichloro-2-(4-chlorobenzoyl)-1,2,3,4-tetrahydroisoquinoline-6-carboxamido)-3-(3-((R)-2,3-dihydro-1H-inden-1-yl)ureido)propanoic Acid] it is less than 500 nM. The figure for `O=C(NC[C@H](NC(=O)c1c(Cl)cc(C(=O)N2CCc3ccccc3C2)cc1Cl)C(=O)O)N[C@@H]1CCc2ccccc21` [SU15210-0227-01, (S)-2-(2,6-dichloro-4-(1,2,3,4-tetrahydroisoquinoline-2-carbonyl)benzamido)-3-(3-((R)-2,3-dihydro-1H-inden-1-yl)ureido)propanoic Acid] is 500 to 1000 nM; for `CC(C)c1cccc(Nc2ccc(Cl)c(C(=O)N[C@@H](CNC(=O)N[C@@H]3CCc4ccccc43)C(=O)O)c2Cl)c1` [SU15210-0078-01, (S)-2-(2,6-dichloro-3-(3-isopropylphenylamino)benzamido)-3-(3-((R)-2,3-dihydro-1H-inden-1-yl)ureido)propanoic Acid] it is 500 to 1000 nM.

`C[C@@H](NC(=O)c1cc(Cl)c(C(=O)N[C@@H](CNC(=O)N[C@@H]2CCc3ccccc32)C(=O)O)c(Cl)c1)c1ccccc1` [SU15210-0225-01, (S)-2-(2,6-dichloro-4-((R)-1-phenylethylcarbamoyl)benzamido)-3-(3-((R)-2,3-dihydro-1H-inden-1-yl)ureido)propanoic Acid] had an IC50 of less than 500 nM. The figure for `O=C(NC[C@H](NC(=O)c1c(Cl)ccc(N2CC(c3ccc(Cl)cc3)C2)c1Cl)C(=O)O)N[C@@H]1CCc2ccccc21` [SU15210-0163-01, (S)-2-(2,6-dichloro-3-(3-(4-chlorophenyl)azetidin-1-yl)benzamido)-3-(3-((R)-2,3-dihydro-1H-inden-1-yl)ureido)propanoic Acid] is 1000 to 5000 nM. As for `C[C@H](NC(=O)c1cc(Cl)c(C(=O)N[C@@H](CNC(=O)N[C@@H]2CCc3ccccc32)C(=O)O)c(Cl)c1)c1ccccc1` [SU15210-0224-01, (S)-2-(2,6-dichloro-4-((S)-1-phenylethylcarbamoyl)benzamido)-3-(3-((R)-2,3-dihydro-1H-inden-1-yl)ureido)propanoic Acid], the figure is 1000 to 5000 nM; as for `CN(Cc1cccc(Cl)c1)C(=O)c1cc(Cl)c(C(=O)N[C@@H](CNC(=O)N[C@@H]2CCc3ccccc32)C(=O)O)c(Cl)c1` [SU15210-0226-01, (S)-2-(2,6-dichloro-4-((3-chlorobenzyl)(methyl)carbamoyl)benzamido)-3-(3-((R)-2,3-dihydro-1H-inden-1-yl)ureido)propanoic Acid], 500 to 1000 nM; as for `O=C(NC[C@H](NC(=O)c1c(Cl)cc2c(c1Cl)CCN(Cc1ccc(F)cc1)C2)C(=O)O)N[C@@H]1CCc2ccccc21` [SU15210-0210-01, (S)-2-(5,7-dichloro-2-(4-fluorobenzyl)-1,2,3,4-tetrahydroisoquinoline-6-carboxamido)-3-(3-((R)-2,3-dihydro-1H-inden-1-yl)ureido)propanoic Acid], 1000 to 5000 nM. The figure for `Cc1cccc(CC(=O)Nc2ccc(Cl)c(C(=O)N[C@@H](CNC(=O)N[C@@H]3CCc4ccccc43)C(=O)O)c2Cl)c1` [SU15210-0156-01, (S)-2-(2,6-dichloro-3-(2-m-tolylacetamido)benzamido)-3-(3-((R)-2,3-dihydro-1H-inden-1-yl)ureido)propanoic Acid] is 500 to 1000 nM; for `O=C(NC[C@H](NC(=O)c1c(Cl)cc2c(c1Cl)CCN(C(=O)c1cccc(Cl)c1)C2)C(=O)O)N[C@@H]1CCc2ccccc21` [SU15210-0209-01, (S)-2-(5,7-dichloro-2-(3-chlorobenzoyl)-1,2,3,4-tetrahydroisoquinoline-6-carboxamido)-3-(3-((R)-2,3-dihydro-1H-inden-1-yl)ureido)propanoic Acid] it is less than 500 nM. `O=C(Cc1cccc(Cl)c1)Nc1cc(Cl)c(C(=O)N[C@@H](CNC(=O)N[C@@H]2CCc3ccccc32)C(=O)O)c(Cl)c1` [SU15210-0235-01, (S)-2-(2,6-dichloro-4-(2-(3-chlorophenyl)acetamido)benzamido)-3-(3-((R)-2,3-dihydro-1H-inden-1-yl)ureido)propanoic Acid] had an IC50 of less than 500 nM. `O=C(NC[C@H](NC(=O)c1c(Cl)cc(OCCc2ccccc2)cc1Cl)C(=O)O)N[C@@H]1CCc2ccccc21` [SU15210-0188-01, (S)-2-(2,6-dichloro-4-phenethoxybenzamido)-3-(3-((R)-2,3-dihydro-1H-inden-1-yl)ureido)propanoic Acid] gave an IC50 of 1000 to 5000 nM.

In turn, `CC(=O)N1CCc2c(cc(Cl)c(C(=O)N[C@@H](CNC(=O)N[C@@H]3CCc4ccccc43)C(=O)O)c2Cl)C1` [SU15210-0174-01] showed an IC50 of 1000 to 5000 nM.

`CC(C)CCNc1ccc(Cl)c(C(=O)N[C@@H](CNC(=O)N[C@@H]2CCc3ccccc32)C(=O)O)c1Cl` [SU15210-0125-01, (S)-2-(2,6-dichloro-3-(isopentylamino)benzamido)-3-(3-((R)-2,3-dihydro-1H-inden-1-yl)ureido)propanoic Acid]: the 50% inhibitory concentration (IC50) lay within 1000 to 5000 nM. On to `O=C(NC[C@H](NC(=O)c1c(Cl)cc(C(=O)N2CC(c3ccccc3)C2)cc1Cl)C(=O)O)N[C@@H]1CCc2ccccc21` [SU15210-0234-01], for which the IC50 is less than 500 nM. As for `O=C(NC[C@H](NC(=O)c1c(Cl)cc(-n2cnc(-c3ccccc3)c2)cc1Cl)C(=O)O)N[C@@H]1CCc2ccccc21` [SU15210-0192-01, (S)-2-(2,6-dichloro-4-(4-phenyl-1H-imidazol-1-yl)benzamido)-3-(3-((R)-2,3-dihydro-1H-inden-1-yl)ureido)propanoic Acid], the IC50 is 1000 to 5000 nM. On to `O=C(NC[C@H](NC(=O)c1c(Cl)cc2c(c1Cl)CCN(Cc1ccccc1)C2=O)C(=O)O)N[C@@H]1CCc2ccccc21` [SU15210-0211-01, (S)-2-(2-benzyl-5,7-dichloro-1-oxo-1,2,3,4-tetrahydroisoquinoline-6-carboxamido)-3-(3-((R)-2,3-dihydro-1H-inden-1-yl)ureido)propanoic Acid], for which the IC50 is less than 500 nM. Compound `O=C(NC[C@H](NC(=O)c1c(Cl)ccc(NCCc2ccccc2)c1Cl)C(=O)O)N[C@@H]1CCc2ccccc21` [SU15210-0097-01, (S)-2-(2,6-dichloro-3-(phenethylamino)benzamido)-3-(3-((R)-2,3-dihydro-1H-inden-1-yl)ureido)propanoic Acid] came in with an IC50 of 1000 to 5000 nM. Consider `CN(Cc1ccccc1)C(=O)NC[C@H](NC(=O)c1c(Cl)cc(C(=O)NCc2cccc(Cl)c2)cc1Cl)C(=O)O` [SU15210-0223-01, (S)-3-(3-benzyl-3-methylureido)-2-(2,6-dichloro-4-(3-chlorobenzylcarbamoyl)benzamido)propanoic Acid], for which the IC50 was less than 500 nM. As for `O=C(Cc1cccc(Cl)c1)Nc1ccc(Cl)c(C(=O)N[C@@H](CNC(=O)NCc2ccccc2O)C(=O)O)c1Cl` [SU15210-0159-01, (S)-2-(2,6-dichloro-3-(2-(3-chlorophenyl)acetamido)benzamido)-3-(3-(2-hydroxybenzyl)ureido)propanoic Acid], the figure is less than 500 nM; as for `CC1(C)CCC(NC(=O)NC[C@H](NC(=O)c2c(Cl)cc(C(=O)NCc3cccc(O)c3)cc2Cl)C(=O)O)c2ccccc21` (stereo partly drawn) [SU15210-0187-01, (2S)-2-(2,6-dichloro-4-(3-hydroxybenzylcarbamoyl)benzamido)-3-(3-(4,4-dimethyl-1,2,3,4-tetrahydronaphthalen-1-yl)ureido)propanoic Acid], less than 500 nM; as for `O=C(Cc1ccc(F)c(Cl)c1)Nc1ccc(Cl)c(C(=O)N[C@@H](CNC(=O)N[C@@H]2CCc3ccccc32)C(=O)O)c1Cl` [SU15210-0155-01, (S)-2-(2,6-dichloro-3-(2-(3-chloro-4-fluorophenyl)acetamido)benzamido)-3-(3-((R)-2,3-dihydro-1H-inden-1-yl)ureido)propanoic Acid], 500 to 1000 nM. The figure for `O=C(NC[C@H](NC(=O)c1c(Cl)cc(C(=O)N2Cc3ccccc3C2)cc1Cl)C(=O)O)N[C@@H]1CCc2ccccc21` [SU15210-0228-01, (S)-2-(2,6-dichloro-4-(isoindoline-2-carbonyl)benzamido)-3-(3-((R)-2,3-dihydro-1H-inden-1-yl)ureido)propanoic Acid] is 1000 to 5000 nM. The figure for `O=C(NC[C@H](NC(=O)c1c(Cl)cc2c(c1Cl)CCNC2)C(=O)O)N[C@@H]1CCc2ccccc21` [SU15210-0171-01] is greater than 5000 nM; for `O=C(NC[C@H](NC(=O)c1c(Cl)cc(N2CC(c3ccccc3)C2)cc1Cl)C(=O)O)N[C@@H]1CCc2ccccc21` [SU15210-0190-01] it is greater than 5000 nM; for `O=C(NC[C@H](NC(=O)c1c(Cl)cc(-c2ccccc2)cc1Cl)C(=O)O)N[C@@H]1CCc2ccccc21` [SU15210-0140-01] it is greater than 5000 nM.
